Results as given in PubChem BioAssay AID1845202 (Molecular Pharmacology Branch, DTP, NCI, 2023).

System: DMS 114 tumor spheroids, viability % test/control
Assay: Anticancer human tumor DMS 114 cell line growth inhibition;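 further: spheroids exposed to compounds for 7 days before read-out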;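 on viability, T/C: luminescence used as a proxy for viable cells; 100% = DMSO vehicle control viability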
Details: spheroids with HUVEC and MSC; for IC50: curve of first compound; for viability, T/C: stronger effect = lower value
How it was run: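 Complex tumor spheroids combined malignant cells with endothelial cells and mesenchymal stem cells. DNA-damaging drugs and DNA repair inhibitors were tested alone and in combination, at half-log dilutions down from clinical Cmax (top 10 microM if Cmax unknown), 0.25% DMSO final.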

[1] = second compound 0.003 µM, first compound 0.0316 µM
[2] = second compound 0.003 µM, first compound 0.1 µM
[3] = second compound 0.003 µM, first compound 0.316 µM
[4] = second compound 0.003 µM, first compound 1 µM
[5] = second compound 0.003 µM, first compound 3.16 µM
[6] = second compound 0.003 µM, first compound 10 µM
[7] = second compound 0.00949 µM, first compound 0.0316 µM
[8] = second compound 0.00949 µM, first compound 0.1 µM
[9] = second compound 0.00949 µM, first compound 0.316 µM
[10] = second compound 0.00949 µM, first compound 1 µM
[11] = second compound 0.00949 µM, first compound 3.16 µM
[12] = second compound 0.00949 µM, first compound 10 µM
[13] = second compound 0.03 µM, first compound 0.0316 µM
[14] = second compound 0.03 µM, first compound 0.1 µM
[15] = second compound 0.03 µM, first compound 0.316 µM
[16] = second compound 0.03 µM, first compound 1 µM
[17] = second compound 0.03 µM, first compound 3.16 µM
[18] = second compound 0.03 µM, first compound 10 µM
[19] = second compound 0.0949 µM, first compound 0.0316 µM
[20] = second compound 0.0949 µM, first compound 0.1 µM
[21] = second compound 0.0949 µM, first compound 0.316 µM
[22] = second compound 0.0949 µM, first compound 1 µM
[23] = second compound 0.0949 µM, first compound 3.16 µM
[24] = second compound 0.0949 µM, first compound 10 µM
[25] = second compound 0.3 µM, first compound 0.0316 µM
[26] = second compound 0.3 µM, first compound 0.1 µM
[27] = second compound 0.3 µM, first compound 0.316 µM
[28] = second compound 0.3 µM, first compound 1 µM
[29] = second compound 0.3 µM, first compound 3.16 µM
[30] = second compound 0.3 µM, first compound 10 µM

Structure (SMILES) | IC50 (second compound 0.003 µM) [nM] | IC50 (second compound 0.00949 µM) [nM] | IC50 (second compound 0.03 µM) [nM] | IC50 (second compound 0.0949 µM) [nM] | IC50 (second compound 0.3 µM) [nM] | viability, T/C [1] [%] | viability, T/C [2] [%] | viability, T/C [3] [%] | viability, T/C [4] [%] | viability, T/C [5] [%] | viability, T/C [6] [%] | viability, T/C [7] [%] | viability, T/C [8] [%] | viability, T/C [9] [%] | viability, T/C [10] [%] | viability, T/C [11] [%] | viability, T/C [12] [%] | viability, T/C [13] [%] | viability, T/C [14] [%] | viability, T/C [15] [%] | also measured
CC(C)n1c(=O)n(C)c2cnc3cc(F)c(-c4ccc(OCCCN5CCCCC5)nc4)cc3c21 + CC[C@@]1(O)C(=O)OCc2c1cc1n(c2=O)Cc2cc3c(CN(C)C)c(O)ccc3nc2-1 | 1950 | < 31.6 | < 31.6 | < 31.6 | < 31.6 | 75.1 | 72.8 | 63.4 | 61.1 | 43.5 | 16.7 | 37.9 | 37.9 | 33.3 | 31.3 | 25 | 10.4 | 24.7 | 24.6 | 23.9 | viability, T/C [16]: 20.2%; viability, T/C [17]: 18.2%; viability, T/C [18]: 9.25%; viability, T/C [19]: 13.6%; viability, T/C [20]: 15.6%; viability, T/C [21]: 11.3%; viability, T/C [22]: 14.2%; viability, T/C [23]: 11.2%; viability, T/C [24]: 7.13%; viability, T/C [25]: 9.95%; viability, T/C [26]: 9.05%; viability, T/C [27]: 9.41%; viability, T/C [28]: 9.97%; viability, T/C [29]: 8.36%; viability, T/C [30]: 6.56%
CC1COCCN1c1cc(-c2ccnn2C)c2ccnc(-c3ccn[nH]3)c2n1 (stereo not given) + CC[C@@]1(O)C(=O)OCc2c1cc1n(c2=O)Cc2cc3c(CN(C)C)c(O)ccc3nc2-1 | < 31.6 | < 31.6 | < 31.6 | < 31.6 | < 31.6 | 24.7 | 20.3 | 15.8 | 11.9 | 8.38 | 8.31 | 16.8 | 16.3 | 15.2 | 10.5 | 7.71 | 8.35 | 13.2 | 13 | 11.1 | viability, T/C [16]: 8.42%; viability, T/C [17]: 7.3%; viability, T/C [18]: 7.49%; viability, T/C [19]: 8.52%; viability, T/C [20]: 8.81%; viability, T/C [21]: 8.07%; viability, T/C [22]: 7.09%; viability, T/C [23]: 6.17%; viability, T/C [24]: 7.21%; viability, T/C [25]: 6.92%; viability, T/C [26]: 7.23%; viability, T/C [27]: 6.75%; viability, T/C [28]: 6.68%; viability, T/C [29]: 6.95%; viability, T/C [30]: 7.43%
COc1cc(C)[nH]c(=O)c1CN1CCc2c(Cl)cc(C(OC)C3COC3)c(Cl)c2C1=O (stereo not given) + CC[C@@]1(O)C(=O)OCc2c1cc1n(c2=O)Cc2cc3c(CN(C)C)c(O)ccc3nc2-1 | > 10000 | 1920 | < 31.6 | < 31.6 | < 31.6 | 103 | 88.5 | 83.4 | 77 | 66 | 61.2 | 88.3 | 74.2 | 64.1 | 57.5 | 49.3 | 32.1 | 39.2 | 34 | 32.1 | viability, T/C [16]: 30.6%; viability, T/C [17]: 24.4%; viability, T/C [18]: 18.5%; viability, T/C [19]: 16.8%; viability, T/C [20]: 16.3%; viability, T/C [21]: 18.4%; viability, T/C [22]: 17.1%; viability, T/C [23]: 15.2%; viability, T/C [24]: 12%; viability, T/C [25]: 10.3%; viability, T/C [26]: 11.2%; viability, T/C [27]: 10.6%; viability, T/C [28]: 11.4%; viability, T/C [29]: 11.1%; viability, T/C [30]: 10.7%
COc1ccc([C@@H](O)c2cc(-c3ncnc4cc(N5CCOCC5)ccc34)c(F)cc2Cl)nn1 + CC[C@@]1(O)C(=O)OCc2c1cc1n(c2=O)Cc2cc3c(CN(C)C)c(O)ccc3nc2-1 | 5390 | 1760 | < 31.6 | < 31.6 | < 31.6 | 116 | 110 | 109 | 106 | 69 | 27.9 | 89.9 | 73.8 | 78.9 | 57.7 | 40.2 | 17.3 | 30.8 | 32.4 | 32.8 | viability, T/C [16]: 25.5%; viability, T/C [17]: 13.7%; viability, T/C [18]: 13.5%; viability, T/C [19]: 16.2%; viability, T/C [20]: 16.6%; viability, T/C [21]: 16.4%; viability, T/C [22]: 14%; viability, T/C [23]: 10.1%; viability, T/C [24]: 7.97%; viability, T/C [25]: 10.7%; viability, T/C [26]: 9.61%; viability, T/C [27]: 9.29%; viability, T/C [28]: 10.1%; viability, T/C [29]: 6.94%; viability, T/C [30]: 5.57%
